Values quoted from earlier work, collected in the PKSmart pharmacokinetics tables (Seal et al. 2025).

How the values were obtained:
[1] = Lombardo, Berellini, Obach 2018, Drug Metab Dispos 46:1466, doi 10.1124/dmd.118.082966; settings: human; for MRT / Vd / clearance / half-life: in vivo, iv; for fraction unbound: plasma
[2] = Lombardo et al. 2013, J Clin Pharmacol 53:178, doi 10.1177/0091270012440282; settings: for Vd / clearance: in vivo, iv; for fraction unbound: plasma

Structure (SMILES) | MRT [1] | Vd [1] | clearance [1] | half-life [1] | Vd ([2]; dog) | clearance ([2]; dog) | fraction unbound ([2]; dog) | Vd ([2]; monkey) | clearance ([2]; monkey) | fraction unbound ([2]; monkey) | Vd ([2]; rat) | clearance ([2]; rat) | fraction unbound ([2]; rat) | fraction unbound [1]
C[C@@H]1CCC[C@H](C)N1CCCC(O)(c1ccccc1)c1ccccn1 (stereo partly drawn) | 13 h | 1.4 L/kg | 1.8 mL/min/kg | 8.4 h | 2.1 L/kg | 8.3 mL/min/kg | 0.492 | 0.87 L/kg | 4.92 mL/min/kg | 0.42 | 2.6 L/kg | 62 mL/min/kg | 0.49 | –
C[C@H]1NCc2cc(-c3ccc4c(=O)c(C(=O)O)cn(C5CC5)c4c3OC(F)F)ccc21 | 13.7 h | 1 L/kg | 1.23 mL/min/kg | – | 1.29 L/kg | 2.43 mL/min/kg | 0.23 | 0.96 L/kg | 3.39 mL/min/kg | 0.19 | 0.9 L/kg | 12.1 mL/min/kg | 0.13 | 0.25
O=C(CCCN1CCC(O)(c2ccc(Cl)cc2)CC1)c1ccc(F)cc1 | 36 h | 17 L/kg | – | 35 h | 37 L/kg | – | – | 3.7 L/kg | – | – | 10.4 L/kg | – | 0.24 | –
Nc1ccn(C[C@@H](CO)OCP(=O)(O)O)c(=O)n1 | 3.3 h | 0.49 L/kg | 2.5 mL/min/kg | 2.6 h | – | – | – | 0.8 L/kg | 3.5 mL/min/kg | – | 2 L/kg | 0.7 mL/min/kg | 1 | –
COC(=O)C1[C@@H](OC(=O)c2ccccc2)C[C@@H]2CC[C@H]1N2C (stereo partly drawn) | 1 h | 2 L/kg | 32 mL/min/kg | 0.76 h | 2.6 L/kg | 48.7 mL/min/kg | 0.76 | – | – | – | 16.4 L/kg | 253 mL/min/kg | 0.78 | 0.12
NCc1ccccc1CC(=O)NC1C(=O)N2C(C(=O)O)=C(CSc3nnnn3CC(=O)O)CS[C@H]12 (stereo partly drawn) | 4.3 h | 0.17 L/kg | 0.66 mL/min/kg | 3 h | 0.5 L/kg | 6.5 mL/min/kg | – | – | – | – | 0.5 L/kg | 5.4 mL/min/kg | – | 0.19
CC(C)C[C@H](NC(=O)C(NC(=O)c1cccc(-c2ccccc2)n1)[C@@H](C)O)B(O)O (stereo partly drawn) | 50.6 h | 0.87 L/kg | 0.29 mL/min/kg | 42.1 h | – | – | – | – | – | – | 18.1 L/kg | 3.17 mL/min/kg | – | –
CC(C)(C)NCC(O)COc1ccc(NC(=O)NC2CCCCC2)cc1 (stereo not drawn) | 11 h | 3.3 L/kg | 4.9 mL/min/kg | 11 h | – | – | – | – | – | – | 4.5 L/kg | 47.5 mL/min/kg | – | –
O=c1[nH]cc(F)c(=O)[nH]1 | – | – | – | – | – | – | – | – | – | – | 0.25 L/kg | 33 mL/min/kg | 0.69 | 0.64
CON=C(C(=O)NC1C(=O)N2C(C(=O)O)=C(CSc3nnnn3C)CS[C@H]12)c1csc(N)n1 (stereo partly drawn) | 0.77 h | 0.2 L/kg | 3.65 mL/min/kg | 0.89 h | 0.3 L/kg | 8.91 mL/min/kg | – | – | – | – | 0.28 L/kg | 7.46 mL/min/kg | – | 0.31
NC(C(=O)O)[C@@H]1CC(Cl)=NO1 (stereo partly drawn) | 12 h | 0.5 L/kg | 0.69 mL/min/kg | 9.9 h | 0.58 L/kg | 1.4 mL/min/kg | – | 0.61 L/kg | 2.3 mL/min/kg | – | 0.74 L/kg | 6.4 mL/min/kg | – | –
Cc1ccsc1C(=CCCN1CCCC(C(=O)O)C1)c1sccc1C (stereo not drawn) | 12 h | 1.1 L/kg | 1.6 mL/min/kg | 10 h | – | – | – | – | – | – | 2.05 L/kg | 89 mL/min/kg | – | –
CN(C)CCC=C1c2ccccc2CCc2ccccc21 | 24 h | 8.7 L/kg | 6.1 mL/min/kg | 17 h | – | – | – | – | – | – | 11 L/kg | 71 mL/min/kg | 0.11 | –
O=C1c2ccccc2S(=O)(=O)N1CCCCNC[C@H]1CCc2ccccc2O1 | 1.6 h | 0.21 L/kg | 2.2 mL/min/kg | 1.2 h | – | – | – | – | – | – | 1.48 L/kg | 38.3 mL/min/kg | 0.054 | –
CC[C@H](OC(C)=O)C(C[C@H](C)N(C)C)(c1ccccc1)c1ccccc1 | 26 h | 8.3 L/kg | 5.4 mL/min/kg | – | 5.9 L/kg | 28 mL/min/kg | – | – | – | – | – | – | – | 0.2
CNCCCN1c2ccccc2CCc2ccccc21 | 23 h | 15 L/kg | – | 22 h | – | – | – | – | – | – | 19.8 L/kg | – | – | –
C#C[C@]1(OS(=O)(=O)O)CC[C@H]2[C@@H]3CCc4cc(O)ccc4[C@H]3CC[C@@]21C | 7.8 h | 0.61 L/kg | 1.3 mL/min/kg | 9.3 h | – | – | – | 8.7 L/kg | 13 mL/min/kg | – | – | – | – | –
COc1cc(NS(C)(=O)=O)ccc1Nc1c2ccccc2nc2ccccc12 | 6.2 h | 1.6 L/kg | 4.3 mL/min/kg | 4.7 h | 2.8 L/kg | 16 mL/min/kg | 0.081 | – | – | – | 4.5 L/kg | 83 mL/min/kg | 0.1 | 0.029
Cc1nc2n(c(=O)c1CCN1CCC(c3noc4cc(F)ccc34)CC1)CCCC2 | – | – | – | 3.2 h | – | – | 0.083 | – | – | 0.084 | 3.6 L/kg | 71.7 mL/min/kg | 0.118 | –
CN1CCc2cccc3c2[C@H]1Cc1ccc(O)c(O)c1-3 | 0.67 h | 1.6 L/kg | 40 mL/min/kg | – | – | – | – | – | – | – | – | – | 0.1 | 0.05
CCC#CC[C@H](C)[C@H](O)C#C[C@@H]1[C@H]2C/C(=C/COCC(=O)O)C[C@H]2C[C@H]1O | 0.35 h | 0.08 L/kg | 3.8 mL/min/kg | 1.1 h | – | – | – | 1.2 L/kg | 14.3 mL/min/kg | – | 1 L/kg | 49 mL/min/kg | – | –
CNCC[C@@H](Oc1ccccc1C)c1ccccc1 | 1.5 h | 0.85 L/kg | 9.3 mL/min/kg | 5.2 h | – | – | – | – | – | – | 4.3 L/kg | 36 mL/min/kg | 0.11 | –
C[C@H]1[C@H](OC(=O)CCC(=O)O)O[C@@H]2O[C@@]3(C)CC[C@H]4[C@H](C)CC[C@@H]1[C@@]24OO3 | 0.32 h | – | 1070 mL/min/kg | 0.22 h | – | 44 mL/min/kg | 0.181 | – | – | – | – | 212 mL/min/kg | 0.22 | 0.25
O=C(O)CC(NC(=O)CP(=O)(O)O)C(=O)O (stereo not drawn) | 4.51 h | 0.33 L/kg | 1.22 mL/min/kg | 4.78 h | 0.29 L/kg | 4.1 mL/min/kg | – | 0.2 L/kg | 2.3 mL/min/kg | – | 1.1 L/kg | 17.4 mL/min/kg | – | –
COc1cc(NCc2ccc3nc(N)nc(N)c3c2C)cc(OC)c1OC | 17 h | 0.77 L/kg | 0.77 mL/min/kg | 17 h | 11.7 L/kg | 33.2 mL/min/kg | 1 | 1.56 L/kg | 8.5 mL/min/kg | 0.1 | 9.2 L/kg | 71.1 mL/min/kg | – | 0.05
COc1ccc(CCNCC(O)COc2cccc(C)c2)cc1OC (stereo not drawn) | 2 h | 0.67 L/kg | 5.5 mL/min/kg | 1.9 h | 4 L/kg | 45 mL/min/kg | 0.04 | – | – | – | – | – | 0.06 | 0.015
Cc1cc(=O)n(-c2ccccc2)n1C | 20 h | 0.77 L/kg | 0.64 mL/min/kg | 12 h | 0.09 L/kg | 6.3 mL/min/kg | 0.6 | 0.74 L/kg | 4.6 mL/min/kg | 0.908 | 0.81 L/kg | 9.1 mL/min/kg | 1 | –
